According to ChEMBL document CHEMBL1145068 (J Med Chem, 2003):

What was measured:
D(1A) dopamine receptor = D(1A) dopamine receptor (Rattus norvegicus, UniProt P18901); experiment: Binding affinity for rat striatum Dopamine receptor D1 by […] displacement.; type: tissue-based
D(3) dopamine receptor = D(3) dopamine receptor (Rattus norvegicus, UniProt P19020); experiment: biochemical
Description: Binding affinity for rat striatum Dopamine receptor D3 (sf9 cells) by [3H]7-OH-DPAT displacement.

D(2) dopamine receptor = D(2) dopamine receptor (Rattus norvegicus, UniProt P61169); experiment: Binding affinity for rat striatum Dopamine receptor D2 by [3H]spiperone displacement.; type: tissue-based
[1] = target: T1, Alpha-1A adrenergic receptor (Rattus norvegicus, UniProt P43140); experiment: Binding affinity for rat cortex alpha-1 adrenergic receptor by inhibition of [3H]prazosin binding
T1 sequence (P43140 whole entry): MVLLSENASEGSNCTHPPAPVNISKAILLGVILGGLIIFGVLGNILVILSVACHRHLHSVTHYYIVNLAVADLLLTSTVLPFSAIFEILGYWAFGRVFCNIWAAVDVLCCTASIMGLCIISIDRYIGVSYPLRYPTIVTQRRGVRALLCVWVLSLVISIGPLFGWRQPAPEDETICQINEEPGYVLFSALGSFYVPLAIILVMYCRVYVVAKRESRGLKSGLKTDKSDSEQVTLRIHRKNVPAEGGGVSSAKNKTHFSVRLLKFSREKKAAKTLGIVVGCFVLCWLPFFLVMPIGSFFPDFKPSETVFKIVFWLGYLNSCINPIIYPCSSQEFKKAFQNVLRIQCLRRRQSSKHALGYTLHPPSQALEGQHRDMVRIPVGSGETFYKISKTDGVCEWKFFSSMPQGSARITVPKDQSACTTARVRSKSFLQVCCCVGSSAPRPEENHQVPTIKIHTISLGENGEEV

[2] = target: T2, 5-hydroxytryptamine receptor 1A (Rattus norvegicus, UniProt P19327); experiment: Binding affinity for rat hippocampus 5-hydroxytryptamine 1A receptor by inhibition of [3H]8-OH-DPAT binding; type: tissue-based
T2 sequence (P19327 whole entry): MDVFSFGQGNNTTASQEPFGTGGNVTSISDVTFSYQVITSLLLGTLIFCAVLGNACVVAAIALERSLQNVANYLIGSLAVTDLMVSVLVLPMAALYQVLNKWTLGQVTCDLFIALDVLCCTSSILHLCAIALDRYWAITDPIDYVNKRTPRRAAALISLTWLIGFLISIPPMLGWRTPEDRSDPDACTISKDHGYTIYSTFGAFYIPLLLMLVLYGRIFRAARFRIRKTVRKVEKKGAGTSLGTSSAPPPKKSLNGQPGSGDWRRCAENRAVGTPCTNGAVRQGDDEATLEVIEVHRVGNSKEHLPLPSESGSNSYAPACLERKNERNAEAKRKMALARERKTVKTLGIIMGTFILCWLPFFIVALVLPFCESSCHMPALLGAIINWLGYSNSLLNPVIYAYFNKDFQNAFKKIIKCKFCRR

[3] = target: T3, Alpha-2A adrenergic receptor (Rattus norvegicus, UniProt P22909); experiment: Binding affinity for rat cortex alpha-2 adrenergic receptor was determined using [3H]-RX 81002 binding
T3 sequence (P22909 whole entry): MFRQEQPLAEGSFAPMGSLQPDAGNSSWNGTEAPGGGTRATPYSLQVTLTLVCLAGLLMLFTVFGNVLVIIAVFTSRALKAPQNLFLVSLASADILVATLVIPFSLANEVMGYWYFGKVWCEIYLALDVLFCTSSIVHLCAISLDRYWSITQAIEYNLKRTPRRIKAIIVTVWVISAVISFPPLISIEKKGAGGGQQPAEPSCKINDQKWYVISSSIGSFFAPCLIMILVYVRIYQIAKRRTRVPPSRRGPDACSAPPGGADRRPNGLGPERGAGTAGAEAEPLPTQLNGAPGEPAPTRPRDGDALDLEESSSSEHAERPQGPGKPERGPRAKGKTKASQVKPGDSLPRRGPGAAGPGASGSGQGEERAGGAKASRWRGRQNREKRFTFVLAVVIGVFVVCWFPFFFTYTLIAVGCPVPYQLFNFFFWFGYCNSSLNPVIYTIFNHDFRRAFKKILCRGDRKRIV

[4] = target: T3, Alpha-2A adrenergic receptor; experiment: Binding affinity for rat cortex Alpha-2 adrenergic receptor was determined using [3H]-RX 81002 binding
[5] = target: D(3) dopamine receptor (Homo sapiens) (UniProt P35462); experiment: Maximal stimulation reached was evaluated by using [35S]- GTP-gamma S radioligand; type: functional
Sequence of D(3) dopamine receptor (Homo sapiens) (P35462 whole entry): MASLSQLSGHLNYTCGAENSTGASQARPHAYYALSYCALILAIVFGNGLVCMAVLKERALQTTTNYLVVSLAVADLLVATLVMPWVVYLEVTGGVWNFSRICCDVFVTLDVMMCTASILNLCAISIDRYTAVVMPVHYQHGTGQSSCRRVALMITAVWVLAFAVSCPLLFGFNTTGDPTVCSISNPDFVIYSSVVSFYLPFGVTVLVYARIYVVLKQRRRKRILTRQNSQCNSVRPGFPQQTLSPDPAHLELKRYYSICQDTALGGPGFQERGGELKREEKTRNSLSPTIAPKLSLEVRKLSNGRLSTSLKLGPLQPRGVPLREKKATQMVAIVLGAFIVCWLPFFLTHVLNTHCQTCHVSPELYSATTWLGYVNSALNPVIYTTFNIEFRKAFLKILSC

Sequence of D(2) dopamine receptor (P61169 whole entry): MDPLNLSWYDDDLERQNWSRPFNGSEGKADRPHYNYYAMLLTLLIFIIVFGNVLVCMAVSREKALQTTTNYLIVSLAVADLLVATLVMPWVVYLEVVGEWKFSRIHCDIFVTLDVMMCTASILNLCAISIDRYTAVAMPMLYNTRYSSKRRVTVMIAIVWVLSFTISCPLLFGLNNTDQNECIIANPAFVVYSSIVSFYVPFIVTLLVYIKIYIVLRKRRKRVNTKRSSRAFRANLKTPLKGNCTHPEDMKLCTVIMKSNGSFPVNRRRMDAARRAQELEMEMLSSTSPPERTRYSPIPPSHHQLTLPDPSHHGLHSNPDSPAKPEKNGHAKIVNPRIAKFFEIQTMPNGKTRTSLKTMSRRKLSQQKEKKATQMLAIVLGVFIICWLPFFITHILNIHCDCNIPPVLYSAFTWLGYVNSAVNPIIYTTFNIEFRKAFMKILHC
Sequence of D(3) dopamine receptor (P19020 whole entry): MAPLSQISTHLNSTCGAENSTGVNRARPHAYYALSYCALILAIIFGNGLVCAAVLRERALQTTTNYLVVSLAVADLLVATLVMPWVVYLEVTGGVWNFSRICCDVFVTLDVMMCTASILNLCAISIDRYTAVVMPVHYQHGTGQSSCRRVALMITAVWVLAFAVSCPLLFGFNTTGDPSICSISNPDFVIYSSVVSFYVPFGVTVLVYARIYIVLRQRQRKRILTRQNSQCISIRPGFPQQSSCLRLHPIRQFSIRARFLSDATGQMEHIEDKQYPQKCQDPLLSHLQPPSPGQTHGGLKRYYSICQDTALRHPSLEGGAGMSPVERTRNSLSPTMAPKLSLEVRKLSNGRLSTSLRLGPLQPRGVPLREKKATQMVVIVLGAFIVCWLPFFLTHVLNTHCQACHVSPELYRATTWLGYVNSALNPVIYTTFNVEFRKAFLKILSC
Sequence of D(1A) dopamine receptor (P18901 whole entry): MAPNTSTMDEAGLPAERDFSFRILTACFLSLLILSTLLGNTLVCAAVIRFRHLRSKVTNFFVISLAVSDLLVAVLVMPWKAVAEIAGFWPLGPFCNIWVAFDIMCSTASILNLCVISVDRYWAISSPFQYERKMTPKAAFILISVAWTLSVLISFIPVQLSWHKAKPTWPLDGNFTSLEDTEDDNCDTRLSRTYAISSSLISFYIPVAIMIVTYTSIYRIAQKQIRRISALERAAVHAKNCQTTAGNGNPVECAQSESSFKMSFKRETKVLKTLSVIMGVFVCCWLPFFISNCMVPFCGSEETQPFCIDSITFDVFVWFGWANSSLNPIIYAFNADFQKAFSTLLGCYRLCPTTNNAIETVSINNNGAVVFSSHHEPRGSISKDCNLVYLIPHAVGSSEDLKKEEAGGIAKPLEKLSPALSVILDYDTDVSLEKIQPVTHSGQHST

COc1ccccc1N1CCN(CCCCNC(=O)c2cnc3ccccc3n2)CC1
Ki (D(1A) dopamine receptor): 1440 nM
Ki (D(3) dopamine receptor): 11 nM
Ki (D(2) dopamine receptor): 84 nM

COc1ccccc1N1CCN(CCNCc2coc(-c3cc4ccccc4o3)n2)CC1
Ki (D(1A) dopamine receptor): > 10000 nM
Ki (D(3) dopamine receptor): 759 nM
Ki (D(2) dopamine receptor): 518 nM

COc1ccccc1N1CCN(CCCCNC(=O)c2cc3ccccc3cn2)CC1
Ki [1]: 5.8 nM
Ki (D(1A) dopamine receptor): 1480 nM
Ki (D(3) dopamine receptor): 0.49 nM
Ki (D(2) dopamine receptor): 75 nM
Ki [2]: 3.12 nM
Ki [3]: 76 nM

O=C(NCCCCN1CCN(c2ccc(Cl)cc2Cl)CC1)c1cc2cc(Cl)ccc2[nH]1
Ki [4]: > 10000 nM
Ki [1]: 8100 nM
Ki (D(1A) dopamine receptor): > 10000 nM
Ki (D(3) dopamine receptor): 0.38 nM

O=C(NCCCCN1CCN(c2ccc(Cl)c(Cl)c2)CC1)c1cc2ccccc2o1
Ki (D(1A) dopamine receptor): 1660 nM
Ki (D(3) dopamine receptor): 7.8 nM
Ki (D(2) dopamine receptor): 333 nM

COc1ccccc1N1CCN(CCCCNC(=O)c2ccc3ccccc3n2)CC1
Ki (D(1A) dopamine receptor): 1350 nM
Ki (D(3) dopamine receptor): 4.8 nM
Ki (D(2) dopamine receptor): 83 nM

N#Cc1ccc(N2CCN(CCCCNC(=O)c3cc4ccccc4o3)CC2)cc1
Ki (D(3) dopamine receptor): 41.3 nM

O=C(NCCCCN1CCN(c2ccc(Cl)cc2Cl)CC1)c1cc2ccccc2[nH]1
Ki [4]: > 10000 nM
Ki [1]: 547 nM
Ki (D(1A) dopamine receptor): > 10000 nM

COc1ccccc1N1CCN(CCCCN2CCn3c(cc4ccccc43)C2=O)CC1
Ki [4]: 89 nM
Ki [1]: 33 nM
Ki (D(1A) dopamine receptor): 1570 nM
Ki (D(3) dopamine receptor): 0.87 nM
Ki (D(2) dopamine receptor): 45 nM
Ki [2]: 4.9 nM

O=C(NCCCCN1CCN(c2ccc(Cl)cc2Cl)CC1)c1cc2ccccc2o1
Ki [4]: 1890 nM
Ki [1]: 779 nM
Ki (D(1A) dopamine receptor): 7660 nM
Ki (D(3) dopamine receptor): 0.41 nM
Ki (D(2) dopamine receptor): 409 nM
Ki [2]: 908 nM

COc1ccccc1N1CCN(CCCCNC(=O)c2ccc3ccccc3c2)CC1 [BP-897]
Ki [4]: 83 nM

COc1ccccc1N1CCN(CCCCNC(=O)c2cc3ccccc3o2)CC1
Ki [4]: 54 nM
Ki [1]: 36 nM

O=C(NCCCCN1CCN(c2ccc(Cl)cc2Cl)CC1)c1cc2ccccc2cn1
Ki [4]: 1050 nM
Ki [1]: 629 nM
Ki (D(1A) dopamine receptor): 7750 nM
Ki (D(3) dopamine receptor): 0.66 nM
Ki (D(2) dopamine receptor): 342 nM
Ki [2]: 1050 nM

COc1ccccc1N1CCN(CC2CCN(C(=O)c3cc4ccccc4o3)CC2)CC1
Ki (D(1A) dopamine receptor): 2680 nM
Ki (D(3) dopamine receptor): 74 nM
Ki (D(2) dopamine receptor): 244 nM

COc1ccccc1N1CCN(CCCCNC(=O)c2cc3ccccc3[nH]2)CC1
Ki [4]: 76 nM
Ki [1]: 666 nM
Ki (D(1A) dopamine receptor): 970 nM
Ki (D(3) dopamine receptor): 2.9 nM
Ki (D(2) dopamine receptor): 160 nM
Ki [2]: 11.8 nM

COc1ccccc1N1CCN(CCCCNC(=O)[C@H]2Cc3ccccc3CN2)CC1
Ki (D(3) dopamine receptor): 4.3 nM

NCCc1c[nH]c2ccc(O)cc12
Activity [5]: 30 µM

COc1ccccc1N1CCN(CCNCc2coc(-c3ccc4ccccc4c3)n2)CC1
Ki (D(1A) dopamine receptor): > 10000 nM
Ki (D(3) dopamine receptor): 295 nM
Ki (D(2) dopamine receptor): 86 nM

COc1ccccc1N1CCN(CCCCNC(=O)[C@@H]2Cc3ccccc3CN2)CC1
Ki (D(3) dopamine receptor): 9.2 nM

COc1ccccc1N1CCN(CCCCNC(=O)c2nc3ccccc3n3cccc23)CC1
Ki (D(1A) dopamine receptor): 778 nM
Ki (D(3) dopamine receptor): 28 nM
Ki (D(2) dopamine receptor): 59 nM
